In US9113629B2, “4-amino-6-(4-substituted-phenyl)-picolinates and 6-amino-2-(4-substituted-phenyl)-pyrimidine-4-carboxylates and their use as herbicides” (DOW AGROSCIENCES LLC, priority 2013, dated 2015):
Like-named read-outs stand apart in the source and are kept apart here.

Assays:
[1] = test system: Key Broadleaf Weed and Crop Species; experiment: Post-emergent Test II herbicidal activity (Table 5); type: in vivo; settings: post-emergence, 336 h, post-emergent, 14 days after application; for pest or weed control at 70 g/ha: 70 g ai/ha; for pest or weed control at 140 g/ha: 140 g ai/ha
Procedure, shortened: (§1)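 Test species were raised 7–21 d under greenhouse conditions until reaching the first or second true leaf, sprayed with formulated compound at 187 L/ha, and kept subirrigated to avoid wash-off. Fourteen days later, damage was rated visually on a 0–100% scale against untreated plants.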

[2] = test system: Key Grass and Sedge Weeds as well as Grass Crops; experiment: Post-emergent Test II herbicidal activity (Table 6); type: in vivo; settings: post-emergence, 336 h; for pest or weed control at 70 g/ha: application rate 70 g ai/ha; for pest or weed control at 140 g/ha: application rate 140 g ai/ha
Procedure, shortened: as §1

[3] = ABUTH: velvetleaf (Abutilon theophrasti), read-out: Visual Growth Reduction (%) 14 Days After Application ABUTH
[4] = AMARE: redroot pigweed (Amaranthus retroflexus), read-out: Visual Growth Reduction (%) 14 Days After Application AMARE
[5] = BRSNN: oilseed-rape, canola (Brassica napus), read-out: Visual Growth Reduction (%) 14 Days After Application BRSNN
[6] = CHEAL: lambsquarters (Chenopodium album), read-out: Visual Growth Reduction (%) 14 Days After Application CHEAL
[7] = EPHHL: wild poinsettia (Euphorbia heterophylla), read-out: Visual Growth Reduction (%) 14 Days After Application EPHHL
[8] = HELAN: sunflower (Helianthus annuus), read-out: Visual Growth Reduction (%) 14 Days After Application HELAN
[9] = VIOTR: wild pansy (Viola tricolor), read-out: Visual Growth Reduction (%) 14 Days After Application VIOTR
[10] = Triticum aestivum, TRZSS (wheat), read-out: Visual Growth Reduction (%) 14 Days After Application, TRZSS
[11] = CYPES: yellow nutsedge (Cyperus esculentus), read-out: Visual Growth Reduction (%) 14 Days After Application, CYPES
[12] = DIGSA: crabgrass (Digitaria sanguinalis), read-out: Visual Growth Reduction (%) 14 Days After Application, DIGSA
[13] = ECHCG: barnyardgrass (Echinochloa crus-galli), read-out: Visual Growth Reduction (%) 14 Days After Application, ECHCG
[14] = ORYSA: rice (Oryza sativa), read-out: Visual Growth Reduction (%) 14 Days After Application, ORYSA
[15] = SETFA: giant foxtail (Setaria faberi), read-out: Visual Growth Reduction (%) 14 Days After Application, SETFA
[16] = SORVU: grain sorghum (Sorghum vulgare), read-out: Visual Growth Reduction (%) 14 Days After Application, SORVU
[17] = ZEAMX: maize, corn (Zea mays), read-out: Visual Growth Reduction (%) 14 Days After Application, ZEAMX

Row | SMILES | pest or weed control at 70 g/ha [1, 3] [%] | pest or weed control at 140 g/ha [1, 3] [%] | pest or weed control at 70 g/ha [1, 4] [%] | pest or weed control at 140 g/ha [1, 4] [%] | pest or weed control at 70 g/ha [1, 5] [%] | pest or weed control at 140 g/ha [1, 5] [%] | pest or weed control at 70 g/ha [1, 6] [%] | pest or weed control at 140 g/ha [1, 6] [%] | pest or weed control at 70 g/ha [1, 7] [%] | pest or weed control at 140 g/ha [1, 7] [%] | pest or weed control at 70 g/ha [1, 8] [%] | pest or weed control at 140 g/ha [1, 8] [%] | pest or weed control at 70 g/ha [1, 9] [%] | pest or weed control at 140 g/ha [1, 9] [%] | pest or weed control at 70 g/ha [2, 10] [%] | pest or weed control at 140 g/ha [2, 10] [%] | pest or weed control at 70 g/ha [2, 11] [%] | pest or weed control at 140 g/ha [2, 11] [%] | pest or weed control at 70 g/ha [2, 12] [%] | pest or weed control at 140 g/ha [2, 12] [%] | other results
1 | Nc1c(Cl)c(C(=O)O)nc(-c2ccc(I)c(F)c2)c1Cl [Compound 145, 4-Amino-3,5-dichloro-6-(3-fluoro-4-iodophenyl)picolinic acid] | 45 to 59 | 60 to 74 | 75 to 84 | 95 to 100 | 95 to 100 | 95 to 100 | 95 to 100 | 95 to 100 | 60 to 74 | 60 to 74 | 95 to 100 | 95 to 100 | 0 to 29 | 0 to 29 | 60 to 74 | 60 to 74 | 45 to 59 | 45 to 59 | 85 to 94 | 85 to 94 | pest or weed control at 70 g/ha [2, 13]: 75 to 84%; pest or weed control at 140 g/ha [2, 13]: 75 to 84%; pest or weed control at 70 g/ha [2, 14]: 0 to 29%; pest or weed control at 140 g/ha [2, 14]: 0 to 29%; pest or weed control at 70 g/ha [2, 15]: 75 to 84%; pest or weed control at 140 g/ha [2, 15]: 75 to 84%; pest or weed control at 70 g/ha [2, 16]: 85 to 94%; pest or weed control at 140 g/ha [2, 16]: 85 to 94%; pest or weed control at 70 g/ha [2, 17]: 75 to 84%; pest or weed control at 140 g/ha [2, 17]: 75 to 84%
2 | Nc1c(Cl)c(C(=O)O)nc(-c2ccc(C(F)(F)F)c(F)c2)c1Cl [Compound 146] | 75 to 84 | 85 to 94 | 75 to 84 | 85 to 94 | 85 to 94 | 85 to 94 | 85 to 94 | 85 to 94 | 0 to 29 | 0 to 29 | 95 to 100 | 95 to 100 | 0 to 29 | 0 to 29 | 60 to 74 | 75 to 84 | 95 to 100 | 95 to 100 | 60 to 74 | 60 to 74 | pest or weed control at 70 g/ha [2, 13]: 75 to 84%; pest or weed control at 140 g/ha [2, 13]: 85 to 94%; pest or weed control at 70 g/ha [2, 14]: 0 to 29%; pest or weed control at 140 g/ha [2, 14]: 0 to 29%; pest or weed control at 70 g/ha [2, 16]: 30 to 44%; pest or weed control at 140 g/ha [2, 16]: 30 to 44%; pest or weed control at 70 g/ha [2, 17]: 60 to 74%; pest or weed control at 140 g/ha [2, 17]: 60 to 74%
